Source: patent US10351594B2, “Process for preparing compounds having triple activities of thrombolysis, antithrombosis, and radical scavenging” (Shanghai Lumosa Therapeutics Co., Ltd., priority 2013, dated 2019)
Entries after “also recorded” stand apart in the source; their conditions may differ. Marks after values point to notes of the source that are not given here.

Tests used:
[1] = tested on: thrombus (rat arteriovenous bypass thrombolysis model); assay: Thrombolytic activity via intravenous administration, rat arteriovenous bypass thrombolysis model; type: in vivo, male SD rats; details: rat; for Weight reduction in thrombus: intravenous injection, 5Aa-p 0.1 nmol/kg, 1 hour, n = 10; for Thrombolytic activity, result in words: intravenous, 0.1 nmol/kg (5Ak also 0.01 and 0.001 nmol/kg), urokinase 20000 U/kg
Experimental: 200-220 g male SD rats were anesthetized with 20% urethane solution (6 mL/kg, ip). Anesthetized rats were fixed in a supine position, and the right common carotid artery was separated, clamped at the proximal end with an arterial clip, and penetrated with a suture at the proximal and distal ends, respectively. The suture at the distal end is clipped tightly by a hemostatic clamp at the skin/fur. Cannulation was performed at the distal end, the arterial clamp was loosened, and about 1 ml arterial blood was discharged into a 1 mL EP vial. 0.1 mL rat arterial blood was injected into a vertically fixed glass tube (15 mm in length, with an inner diameter of 2.5 mm and an outer diameter of 5.0 mm, sealed with a rubber stopper at the bottom), into which was immediately inserted a thrombus immobilization screw made of stainless steel. […] 40 min after the blood coagulated, the rubber stopper at the bottom of the glass tube was removed, the stem of the thrombus immobilization screw was fixed by forceps, and the thrombus-wrapped thrombus immobilization screw was carefully taken out from the glass tube and precisely weighted.
A bypass cannula was composed of 3 segments. The middle segment was a polyethylene tube having a length of 60 mm and an inner diameter of 3.5 mm. The segments on both ends were similar polyethylene tubes having a length of 100 mm, an inner diameter of 1 mm and an outer diameter of 2 mm, one end of which was pulled to form a tip, with an outer diameter of 1.0 mm (used in inserting into the rat carotid artery or vein), the other end of which was sheathed by a polyethylene tube having a length of 7 mm and an outer diameter of 3.5 mm (thickened, used in inserting into the polyethylene tube of the middle segment). The inner wall of the 3-segment cannula was entirely silylated. The thrombus-wrapped thrombus immobilization screw was placed into the polyethylene tube of the middle segment, and both ends of the tube sheath the thickened ends of two polyethylene tubes. The cannula was filled with a heparin solution in normal saline (50 IU/kg) through the tip end by using an injector and was ready for use.
The left external jugular vein of the rat was separated and penetrated with a suture at the proximal and distal ends respectively, and the distal end was ligated. An incision was carefully made on the exposed left external jugular vein, and the tip of the bypass cannula prepared as described above was inserted into the proximal end of the incision in the left external jugular vein, away from the stem of the thrombus immobilization screw in the middle segment of the bypass cannula (which accommodated the accurately weighed thrombus immobilization screw). A precise amount of heparin in saline (50 IU/kg) was injected through the tip at the other end by using an injector. At this moment, without removing the injector from the polyethylene tube, the tube between the injector and the polyethylene tube was clamped with a hemostatic clamp. The blood flow was stopped by clamping the proximal end of the right common carotid artery with an arterial clip, and an incision was cut carefully across the common carotid artery near the clip. The injector was pulled out of the polyethylene tube through the tip, and the tip of the polyethylene tube was then inserted into the proximal end of the artery incision. Both ends of the bypass cannula were fixed to the artery or vein with #4 sutures.
A scalp needle was used to pass saline solution, a urokinase in saline solution or varied concentrations of the compounds in saline solution through the middle section of the bypass cannula (which accommodated the accurately weighed thrombus immobilization screw) to a position at the proximal vein and away from the thrombus immobilization screw. The artery clip was then removed to allow blood to flow from the artery to the vein through the bypass cannula. A rat arteriovenous bypass thrombolysis model was thus established. […]

[2] = tested on: formation of thrombus (rat arteriovenous bypass); assay: Antithrombotic activity via intravenous administration, rat arteriovenous bypass cannula with thread; type: in vivo, male SD rats; details: rat, 5Aa-p (i.v.) 0.1 nmol/kg, 15 minutes, n = 10
From the text: A cannula was composed of 3 segments. The middle segment has a length of 80 mm and an inner diameter of 3.5 mm. […] The pre-weighed, 60 mm in length thread was placed in the middle segment of the polyethylene tube. Both ends of the wider tube sheathed the un-narrowed ends of two polyethylene tubes respectively (0.5 mm of the thread was restrained by one of the segment to fix the thread). The cannula was filled with a heparin solution in normal saline (50 IU/kg) through the tip end by using an injector and was ready for use. 200-220 g male SD rats were anesthetized with 20% urethane solution (6 mL/kg, ip). Anesthetized rats were fixed in a supine position, and the left external jugular vein was separated and penetrated with a suture at the proximal and distal ends respectively, and the distal end was ligated. An incision was carefully made on the exposed left external jugular vein, and the tip end without thread-restraining of the bypass cannula prepared as described above was inserted into the proximal end of the open incision in the left external jugular vein. A precise amount of heparin in normal saline (50 IU/kg) was injected through the tip at the other end by using an injector. Then, the injector was replaced, and precise amount of drug was injected by the same way. At this moment, without removing the injector from the ethylene tube, the right common carotid artery was separated, and the proximal end was clipped by an artery clip. The right common carotid artery was penetrated with a suture at the proximal and distal ends respectively, and the distal end was ligated. An incision was carefully cut across the right common carotid artery near the artery clip. The injector was pulled out of the polyethylene tube through the tip, and the tip of the polyethylene tube was then inserted into the proximal end of the artery incision. Both ends of the bypass cannula were fixed to the artery or vein with #4 sutures. The artery clip was then removed to allow blood to flow from the artery to the vein through the bypass cannula. A rat arteriovenous bypass thrombolysis model was thus established. The process was timed from the beginning of circulation, the thread attached with thrombus was taken out from the bypass cannula after 15 minutes and accurately weighed. The difference in the mass of the thread before and after was determined as the wet weight of the thrombus, which was statistically analyzed and used to evaluate the in vivo antithrombotic activities of the compounds. The wet weight of the thrombus was expressed as average value and standard deviation (x±SD). The drug administration method is intravenous injection. The blank control was normal saline solution, and the dose was 1 mL/kg. The positive control was aspirin, and the dose was 9 mg/kg. The dose of compounds 5Aa-p of the present invention was 0.1 nmol/kg. The method was the same as in example 3. The drug administration method is intravenous injection. The blank control was normal saline solution, and the dose was 3 mL/kg. The positive control was aspirin, and the dose was 9 mg/kg.

[3] = NO radical scavenging activity (MGD/SNAP signal peak height); type: biochemical; details: n = 6
Experimental: 7.325 mg MGD (N-methyl-glucamine dithiocarbamate, Sigma) was dissolved in 1 mL of pure water to obtain 25 mM MGD solution. […] FeSO4.7H2O was dissolved in 1 mL of pure water to obtain 12.5 mM solution. […] SNAP (S-Nitroso-acetyl penicillamine) was dissolved in 1 mL of pure water to obtain 110 μM green mother liquid, which was diluted 100 folds to obtain 1 μM SNAP solution.
The first peak height of NO signal of 5 μL MGD solution+5 μL FeSO4.7H2O solution+5 μL SNAP solution+5 μL water was measured and repeated for 6 times. This peak height defined as the known peak height of NO signal. The first peak height of NO signal of 5 μL MGD solution+5 μL FeSO4.7H2O solution+5 μL SNAP solution+5 μL solution of one of the compounds 5Aa-p was measured and repeated for 6 times. This peak height defined as the residual peak height of the NO signal scavenged by one of the compounds 5Aa-p. Scavenging ratio=(known peak height of NO signal−residual peak height of NO signal of compounds 5Aa-p)/known peak height of NO signal

Compound	EC50 [3] [µM]	Weight reduction in thrombus [1]	wet weight of thrombus [2]	Thrombolytic activity, result in words [1]
3S-6,7-dihydroxy-1,1-dimethyl-1,2,3,4-tetrahydro-isoquinoline-3-acyl-Lys(Pro-Ala-Val) [Compound 5Ab]	532 ± 73	17.12 ± 1.64^a mg	54.17 ± 6.61^a mg	–
3S-6,7-dihydroxy-1,1-dimethyl-1,2,3,4-tetrahydro-isoquinoline-3-acyl-Lys(Pro-Ala-Gly) [Compound 5Ag]	609 ± 95	18.98 ± 2.14^b mg	54.28 ± 3.57^a mg	comparable to that of urokinase; also recorded: higher thrombolytic activity
C[C@H](NC(=O)[C@@H]1CCCN1)C(=O)N[C@@H](Cc1ccc(O)cc1)C(=O)NCCCC[C@H](NC(=O)[C@@H]1Cc2cc(O)c(O)cc2C(C)(C)N1)C(=O)O [Compound 5Ad, 3S-6,7-dihydroxy-1,1-dimethyl-1,2,3,4-tetrahydro-isoquinoline-3-acyl-Lys(Pro-Ala-Tyr)]	453 ± 41	18.11 ± 2.48^b mg	51.91 ± 4.97^a mg	higher thrombolytic activity
C[C@H](NC(=O)[C@@H]1CCCN1)C(=O)N[C@@H](CCC(N)=O)C(=O)NCCCC[C@H](NC(=O)[C@@H]1Cc2cc(O)c(O)cc2C(C)(C)N1)C(=O)O [Compound 5Am, 3S-6,7-dihydroxy-1,1-dimethyl-1,2,3,4-tetrahydro-isoquinoline-3-acyl-Lys(Pro-Ala-Gln)]	647 ± 88	16.65 ± 2.52^a mg	58.14 ± 2.30^a mg	–

Continued by falling EC50 [3], values first:

EC50 [3] [µM]	Compound	Weight reduction in thrombus [1]	wet weight of thrombus [2]	Thrombolytic activity, result in words [1]
510 ± 75	C[C@H](NC(=O)[C@@H]1CCCN1)C(=O)N[C@H](C(=O)NCCCC[C@H](NC(=O)[C@@H]1Cc2cc(O)c(O)cc2C(C)(C)N1)C(=O)O)[C@@H](C)O [Compound 5Aj, 3S-6,7-dihydroxy-1,1-dimethyl-1,2,3,4-tetrahydro-isoquinoline-3-acyl-Lys(Pro-Ala-Thr)]	15.23 ± 2.45^a mg	50.56 ± 3.96^a mg	–
503 ± 41	CC(C)C[C@H](NC(=O)[C@H](C)NC(=O)[C@@H]1CCCN1)C(=O)NCCCC[C@H](NC(=O)[C@@H]1Cc2cc(O)c(O)cc2C(C)(C)N1)C(=O)O [Compound 5Al, 3S-6,7-dihydroxy-1,1-dimethyl-1,2,3,4-tetrahydro-isoquinoline-3-acyl-Lys(Pro-Ala-Leu)]	14.65 ± 2.86^a mg	54.20 ± 3.93^a mg	–
